# Laboratory results from patent US20220340629A1, “Myosin Derived Peptides and Related Compounds with Anticoagulant Activities” (THE SCRIPPS RESEARCH INSTITUTE, priority 0001, published 2022).
# Residues, ends and D or L forms follow the SMILES beside them.
# Target: skeletal muscle myosin-supported prothrombin activation by factors Xa and Va (Homo sapiens, UniProt P00742)
# Assay: Assay 1A: prothrombin activation by factor Xa/factor Va/myosin in purified system
# Type: biochemical, human factors Xa and Va; rabbit skeletal muscle myosin
# Settings: purified system; skeletal muscle myosin, factor Va 5 nM, factor Xa 0.2 nM, prothrombin 0.75 μM, 10 min; read-out: 1A (+myosin)
# skeletal muscle myosin-supported prothrombin activation by factors Xa and Va, sequence (P00742 41-179): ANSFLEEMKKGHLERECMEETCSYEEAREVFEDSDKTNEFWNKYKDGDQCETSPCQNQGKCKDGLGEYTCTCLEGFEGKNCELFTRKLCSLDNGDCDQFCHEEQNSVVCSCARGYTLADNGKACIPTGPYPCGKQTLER
# skeletal muscle myosin-supported prothrombin activation by factors Xa and Va, sequence (P00742 235-488): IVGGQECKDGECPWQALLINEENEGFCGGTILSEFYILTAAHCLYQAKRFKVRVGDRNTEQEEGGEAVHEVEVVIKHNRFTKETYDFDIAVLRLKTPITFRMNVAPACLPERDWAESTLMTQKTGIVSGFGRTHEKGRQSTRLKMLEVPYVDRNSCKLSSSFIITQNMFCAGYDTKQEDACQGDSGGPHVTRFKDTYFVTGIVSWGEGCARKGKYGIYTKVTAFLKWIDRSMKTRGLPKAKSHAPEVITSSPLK
# skeletal muscle myosin-supported prothrombin activation by factors Xa and Va, sequence (P12259 29-737 partner): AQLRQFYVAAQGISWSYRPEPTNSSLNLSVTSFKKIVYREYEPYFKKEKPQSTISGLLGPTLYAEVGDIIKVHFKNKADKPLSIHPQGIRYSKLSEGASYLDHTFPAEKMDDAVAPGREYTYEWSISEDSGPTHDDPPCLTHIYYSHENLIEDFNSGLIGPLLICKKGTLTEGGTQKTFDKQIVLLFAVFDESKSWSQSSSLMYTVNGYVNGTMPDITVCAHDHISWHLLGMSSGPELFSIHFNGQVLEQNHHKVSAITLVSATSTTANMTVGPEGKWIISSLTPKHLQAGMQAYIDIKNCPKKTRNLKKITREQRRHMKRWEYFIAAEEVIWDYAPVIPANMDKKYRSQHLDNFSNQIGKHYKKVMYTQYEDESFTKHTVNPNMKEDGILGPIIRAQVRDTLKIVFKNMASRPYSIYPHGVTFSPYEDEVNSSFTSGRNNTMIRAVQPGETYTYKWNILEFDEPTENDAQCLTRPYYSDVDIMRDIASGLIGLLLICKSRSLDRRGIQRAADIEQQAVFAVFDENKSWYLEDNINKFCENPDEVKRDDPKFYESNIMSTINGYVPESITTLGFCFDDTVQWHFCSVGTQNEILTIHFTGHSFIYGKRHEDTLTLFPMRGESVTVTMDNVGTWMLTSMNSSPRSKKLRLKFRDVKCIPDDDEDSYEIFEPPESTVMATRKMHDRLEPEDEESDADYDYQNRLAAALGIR
# skeletal muscle myosin-supported prothrombin activation by factors Xa and Va, sequence (P12259 1574-2224 partner): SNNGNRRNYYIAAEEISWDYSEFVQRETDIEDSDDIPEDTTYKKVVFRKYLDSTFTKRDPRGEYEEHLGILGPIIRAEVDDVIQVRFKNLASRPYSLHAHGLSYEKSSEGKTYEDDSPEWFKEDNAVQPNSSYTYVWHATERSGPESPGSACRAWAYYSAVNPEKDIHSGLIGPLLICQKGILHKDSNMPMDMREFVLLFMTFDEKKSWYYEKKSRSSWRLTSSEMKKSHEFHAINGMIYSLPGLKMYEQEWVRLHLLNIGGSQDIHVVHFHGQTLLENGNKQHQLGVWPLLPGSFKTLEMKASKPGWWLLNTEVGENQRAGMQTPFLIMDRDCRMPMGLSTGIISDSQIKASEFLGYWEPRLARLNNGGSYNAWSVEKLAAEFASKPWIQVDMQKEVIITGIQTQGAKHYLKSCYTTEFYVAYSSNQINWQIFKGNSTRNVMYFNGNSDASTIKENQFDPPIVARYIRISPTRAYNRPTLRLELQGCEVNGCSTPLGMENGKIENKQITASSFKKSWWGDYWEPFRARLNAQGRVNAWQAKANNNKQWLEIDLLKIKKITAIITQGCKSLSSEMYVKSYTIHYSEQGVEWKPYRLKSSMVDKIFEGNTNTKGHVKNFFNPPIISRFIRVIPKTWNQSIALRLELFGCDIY
row,Compound,IC50 [µM]
1,CC[C@H](C)[C@H](NC(=O)[C@H](CS)NC(=O)[C@H](Cc1ccccc1)NC(=O)[C@H](C)NC(=O)[C@H](C)N)C(=O)N[C@@H](CCC(N)=O)C(=O)N[C@@H](Cc1ccc(O)cc1)C(=O)N[C@@H](CC(N)=O)C(=O)N[C@H](C(=O)N[C@@H](CCCNC(=N)N)C(=O)N[C@@H](CO)C(=O)N[C@@H](Cc1ccccc1)C(=O)N[C@@H](CCSC)C(=O)N[C@@H](CC(N)=O)C(=O)N[C@H](C(=O)N[C@@H](CCCCN)C(=O)N[C@@H](Cc1c[nH]cn1)C(=O)N[C@@H](Cc1c[nH]c2ccccc12)C(=O)N1CCC[C@H]1C(=O)N[C@@H](Cc1c[nH]c2ccccc12)C(=O)N[C@@H](CCSC)C(=O)N[C@@H](CCCCN)C(N)=O)C(C)C)[C@@H](C)CC [HC117] (H-AAFCIQYNIRSFMNVKHWPWMK-NH2; N-terminus assumed),0.78
2,CC[C@H](C)[C@H](NC(=O)[C@H](C)N)C(=O)N[C@@H](C)C(=O)N[C@@H](CS)C(=O)N[C@H](C(=O)N[C@@H](CCC(N)=O)C(=O)N[C@@H](Cc1ccc(O)cc1)C(=O)N[C@@H](CC(N)=O)C(=O)N[C@H](C(=O)N[C@@H](CCCNC(=N)N)C(=O)N[C@@H](CO)C(=O)N[C@@H](Cc1ccccc1)C(=O)N[C@@H](CCSC)C(=O)N[C@@H](CC(N)=O)C(=O)N[C@H](C(=O)N[C@@H](CCCCN)C(=O)N[C@@H](Cc1c[nH]cn1)C(=O)N[C@@H](Cc1c[nH]c2ccccc12)C(=O)N1CCC[C@H]1C(=O)N[C@@H](Cc1c[nH]c2ccccc12)C(=O)N[C@@H](CCSC)C(=O)N[C@@H](CCCCN)C(N)=O)C(C)C)[C@@H](C)CC)[C@@H](C)CC [HC118] (H-AIACIQYNIRSFMNVKHWPWMK-NH2; N-terminus assumed),1.8
3,CC[C@H](C)[C@H](NC(=O)[C@H](C)N)C(=O)N[C@@H](Cc1ccccc1)C(=O)N[C@@H](C)C(=O)N[C@H](C(=O)N[C@@H](CCC(N)=O)C(=O)N[C@@H](Cc1ccc(O)cc1)C(=O)N[C@@H](CC(N)=O)C(=O)N[C@H](C(=O)N[C@@H](CCCNC(=N)N)C(=O)N[C@@H](CO)C(=O)N[C@@H](Cc1ccccc1)C(=O)N[C@@H](CCSC)C(=O)N[C@@H](CC(N)=O)C(=O)N[C@H](C(=O)N[C@@H](CCCCN)C(=O)N[C@@H](Cc1c[nH]cn1)C(=O)N[C@@H](Cc1c[nH]c2ccccc12)C(=O)N1CCC[C@H]1C(=O)N[C@@H](Cc1c[nH]c2ccccc12)C(=O)N[C@@H](CCSC)C(=O)N[C@@H](CCCCN)C(N)=O)C(C)C)[C@@H](C)CC)[C@@H](C)CC [HC119] (H-AIFAIQYNIRSFMNVKHWPWMK-NH2; N-terminus assumed),5.2
4,CC[C@H](C)[C@H](NC(=O)[C@H](C)N)C(=O)N[C@@H](Cc1ccccc1)C(=O)N[C@@H](CS)C(=O)N[C@@H](C)C(=O)N[C@@H](CCC(N)=O)C(=O)N[C@@H](Cc1ccc(O)cc1)C(=O)N[C@@H](CC(N)=O)C(=O)N[C@H](C(=O)N[C@@H](CCCNC(=N)N)C(=O)N[C@@H](CO)C(=O)N[C@@H](Cc1ccccc1)C(=O)N[C@@H](CCSC)C(=O)N[C@@H](CC(N)=O)C(=O)N[C@H](C(=O)N[C@@H](CCCCN)C(=O)N[C@@H](Cc1c[nH]cn1)C(=O)N[C@@H](Cc1c[nH]c2ccccc12)C(=O)N1CCC[C@H]1C(=O)N[C@@H](Cc1c[nH]c2ccccc12)C(=O)N[C@@H](CCSC)C(=O)N[C@@H](CCCCN)C(N)=O)C(C)C)[C@@H](C)CC [HC120] (H-AIFCAQYNIRSFMNVKHWPWMK-NH2; N-terminus assumed),5.2
5,CC[C@H](C)[C@H](NC(=O)[C@H](C)N)C(=O)N[C@@H](Cc1ccccc1)C(=O)N[C@@H](CS)C(=O)N[C@H](C(=O)N[C@@H](C)C(=O)N[C@@H](Cc1ccc(O)cc1)C(=O)N[C@@H](CC(N)=O)C(=O)N[C@H](C(=O)N[C@@H](CCCNC(=N)N)C(=O)N[C@@H](CO)C(=O)N[C@@H](Cc1ccccc1)C(=O)N[C@@H](CCSC)C(=O)N[C@@H](CC(N)=O)C(=O)N[C@H](C(=O)N[C@@H](CCCCN)C(=O)N[C@@H](Cc1c[nH]cn1)C(=O)N[C@@H](Cc1c[nH]c2ccccc12)C(=O)N1CCC[C@H]1C(=O)N[C@@H](Cc1c[nH]c2ccccc12)C(=O)N[C@@H](CCSC)C(=O)N[C@@H](CCCCN)C(N)=O)C(C)C)[C@@H](C)CC)[C@@H](C)CC [HC121] (H-AIFCIAYNIRSFMNVKHWPWMK-NH2; N-terminus assumed),3.2
6,CC[C@H](C)[C@H](NC(=O)[C@H](C)N)C(=O)N[C@@H](Cc1ccccc1)C(=O)N[C@@H](CS)C(=O)N[C@H](C(=O)N[C@@H](CCC(N)=O)C(=O)N[C@@H](C)C(=O)N[C@@H](CC(N)=O)C(=O)N[C@H](C(=O)N[C@@H](CCCNC(=N)N)C(=O)N[C@@H](CO)C(=O)N[C@@H](Cc1ccccc1)C(=O)N[C@@H](CCSC)C(=O)N[C@@H](CC(N)=O)C(=O)N[C@H](C(=O)N[C@@H](CCCCN)C(=O)N[C@@H](Cc1c[nH]cn1)C(=O)N[C@@H](Cc1c[nH]c2ccccc12)C(=O)N1CCC[C@H]1C(=O)N[C@@H](Cc1c[nH]c2ccccc12)C(=O)N[C@@H](CCSC)C(=O)N[C@@H](CCCCN)C(N)=O)C(C)C)[C@@H](C)CC)[C@@H](C)CC [HC122] (H-AIFCIQANIRSFMNVKHWPWMK-NH2; N-terminus assumed),1.1
7,CC[C@H](C)[C@H](NC(=O)[C@H](C)N)C(=O)N[C@@H](Cc1ccccc1)C(=O)N[C@@H](CS)C(=O)N[C@H](C(=O)N[C@@H](CCC(N)=O)C(=O)N[C@@H](Cc1ccc(O)cc1)C(=O)N[C@@H](C)C(=O)N[C@H](C(=O)N[C@@H](CCCNC(=N)N)C(=O)N[C@@H](CO)C(=O)N[C@@H](Cc1ccccc1)C(=O)N[C@@H](CCSC)C(=O)N[C@@H](CC(N)=O)C(=O)N[C@H](C(=O)N[C@@H](CCCCN)C(=O)N[C@@H](Cc1c[nH]cn1)C(=O)N[C@@H](Cc1c[nH]c2ccccc12)C(=O)N1CCC[C@H]1C(=O)N[C@@H](Cc1c[nH]c2ccccc12)C(=O)N[C@@H](CCSC)C(=O)N[C@@H](CCCCN)C(N)=O)C(C)C)[C@@H](C)CC)[C@@H](C)CC [HC123] (H-AIFCIQYAIRSFMNVKHWPWMK-NH2; N-terminus assumed),0.6
8,CC[C@H](C)[C@H](NC(=O)[C@H](C)N)C(=O)N[C@@H](Cc1ccccc1)C(=O)N[C@@H](CS)C(=O)N[C@H](C(=O)N[C@@H](CCC(N)=O)C(=O)N[C@@H](Cc1ccc(O)cc1)C(=O)N[C@@H](CC(N)=O)C(=O)N[C@@H](C)C(=O)N[C@@H](CCCNC(=N)N)C(=O)N[C@@H](CO)C(=O)N[C@@H](Cc1ccccc1)C(=O)N[C@@H](CCSC)C(=O)N[C@@H](CC(N)=O)C(=O)N[C@H](C(=O)N[C@@H](CCCCN)C(=O)N[C@@H](Cc1c[nH]cn1)C(=O)N[C@@H](Cc1c[nH]c2ccccc12)C(=O)N1CCC[C@H]1C(=O)N[C@@H](Cc1c[nH]c2ccccc12)C(=O)N[C@@H](CCSC)C(=O)N[C@@H](CCCCN)C(N)=O)C(C)C)[C@@H](C)CC [HC124] (H-AIFCIQYNARSFMNVKHWPWMK-NH2; N-terminus assumed),0.7
9,CC[C@H](C)[C@H](NC(=O)[C@H](C)N)C(=O)N[C@@H](Cc1ccccc1)C(=O)N[C@@H](CS)C(=O)N[C@H](C(=O)N[C@@H](CCC(N)=O)C(=O)N[C@@H](Cc1ccc(O)cc1)C(=O)N[C@@H](CC(N)=O)C(=O)N[C@H](C(=O)N[C@@H](C)C(=O)N[C@@H](CO)C(=O)N[C@@H](Cc1ccccc1)C(=O)N[C@@H](CCSC)C(=O)N[C@@H](CC(N)=O)C(=O)N[C@H](C(=O)N[C@@H](CCCCN)C(=O)N[C@@H](Cc1c[nH]cn1)C(=O)N[C@@H](Cc1c[nH]c2ccccc12)C(=O)N1CCC[C@H]1C(=O)N[C@@H](Cc1c[nH]c2ccccc12)C(=O)N[C@@H](CCSC)C(=O)N[C@@H](CCCCN)C(N)=O)C(C)C)[C@@H](C)CC)[C@@H](C)CC [HC125] (H-AIFCIQYNIASFMNVKHWPWMK-NH2; N-terminus assumed),0.6
10,CC[C@H](C)[C@H](NC(=O)[C@H](C)N)C(=O)N[C@@H](Cc1ccccc1)C(=O)N[C@@H](CS)C(=O)N[C@H](C(=O)N[C@@H](CCC(N)=O)C(=O)N[C@@H](Cc1ccc(O)cc1)C(=O)N[C@@H](CC(N)=O)C(=O)N[C@H](C(=O)N[C@@H](CCCNC(=N)N)C(=O)N[C@@H](C)C(=O)N[C@@H](Cc1ccccc1)C(=O)N[C@@H](CCSC)C(=O)N[C@@H](CC(N)=O)C(=O)N[C@H](C(=O)N[C@@H](CCCCN)C(=O)N[C@@H](Cc1c[nH]cn1)C(=O)N[C@@H](Cc1c[nH]c2ccccc12)C(=O)N1CCC[C@H]1C(=O)N[C@@H](Cc1c[nH]c2ccccc12)C(=O)N[C@@H](CCSC)C(=O)N[C@@H](CCCCN)C(N)=O)C(C)C)[C@@H](C)CC)[C@@H](C)CC [HC126] (H-AIFCIQYNIRAFMNVKHWPWMK-NH2; N-terminus assumed),4.9
11,CC[C@H](C)[C@H](NC(=O)[C@H](C)N)C(=O)N[C@@H](Cc1ccccc1)C(=O)N[C@@H](CS)C(=O)N[C@H](C(=O)N[C@@H](CCC(N)=O)C(=O)N[C@@H](Cc1ccc(O)cc1)C(=O)N[C@@H](CC(N)=O)C(=O)N[C@H](C(=O)N[C@@H](CCCNC(=N)N)C(=O)N[C@@H](CO)C(=O)N[C@@H](C)C(=O)N[C@@H](CCSC)C(=O)N[C@@H](CC(N)=O)C(=O)N[C@H](C(=O)N[C@@H](CCCCN)C(=O)N[C@@H](Cc1c[nH]cn1)C(=O)N[C@@H](Cc1c[nH]c2ccccc12)C(=O)N1CCC[C@H]1C(=O)N[C@@H](Cc1c[nH]c2ccccc12)C(=O)N[C@@H](CCSC)C(=O)N[C@@H](CCCCN)C(N)=O)C(C)C)[C@@H](C)CC)[C@@H](C)CC [HC127] (H-AIFCIQYNIRSAMNVKHWPWMK-NH2; N-terminus assumed),5.9
12,CC[C@H](C)[C@H](NC(=O)[C@H](C)N)C(=O)N[C@@H](Cc1ccccc1)C(=O)N[C@@H](CS)C(=O)N[C@H](C(=O)N[C@@H](CCC(N)=O)C(=O)N[C@@H](Cc1ccc(O)cc1)C(=O)N[C@@H](CC(N)=O)C(=O)N[C@H](C(=O)N[C@@H](CCCNC(=N)N)C(=O)N[C@@H](CO)C(=O)N[C@@H](Cc1ccccc1)C(=O)N[C@@H](C)C(=O)N[C@@H](CC(N)=O)C(=O)N[C@H](C(=O)N[C@@H](CCCCN)C(=O)N[C@@H](Cc1c[nH]cn1)C(=O)N[C@@H](Cc1c[nH]c2ccccc12)C(=O)N1CCC[C@H]1C(=O)N[C@@H](Cc1c[nH]c2ccccc12)C(=O)N[C@@H](CCSC)C(=O)N[C@@H](CCCCN)C(N)=O)C(C)C)[C@@H](C)CC)[C@@H](C)CC [HC128] (H-AIFCIQYNIRSFANVKHWPWMK-NH2; N-terminus assumed),2
